The term IC50 denotes the concentration at which inhibition is half-maximal.

Here are results for 1 molecule from patent US11040108B2, “Amino acid- and peptide-steroid conjugates and use thereof” (BRANDEIS UNIVERSITY, priority 2016, dated 2021).

Values after ≈ are worked out from the molar mass of the structure shown. Values joined by “and” are separate entries in the source; they are usually repeats but may differ in a detail not shown here. Equal values may be shown once. Read-outs that look alike come from different tables or passages of the source.

Data set [1] is described as follows: TEM of assemblies in aqueous solution. The format is physicochemical. The settings on record: 1.0 wt %. As for the experimental part: Sample solution (5 sufficient to cover the grid surface) was placed on the grid. Approximately 10 sec later, sample was rinsed by placing a large drop of the ddH2O on parafilm and allowing the grid to touch the water drop, with the sample-loaded surface facing the parafilm. The grid was tilted and water was gently absorbed from the edge of the grid using a filter paper sliver. This procedure was repeated 3 times. Immediately after rinsing, the staining was conducted by placing a large drop of the uranyl acetate (UA) stain solution on parafilm and allowing the grid to touch the stain solution drop, with the sample-loaded surface facing the parafilm. The grid was tilted and the stain solution was gently absorbed from the edge of the grid using a filter paper sliver. Next, the grid was allowed to dry in air and the grid was examined as soon as possible.
To further understand the inhibitory activity of 1a, transmission electron microscopy (TEM) was used to confirm the EISA of 1b. […] In contrast, uniform nanofibers (diameter of 10±2 nm) formed after the addition of ALP (1 U/mL) into the solution of 1a (FIG. 3B). The resulted nanofibers entangled with each other to result in a viscous solution. […] But the direct dissolution of 2b (1.0 wt %) provided an aqueous solution containing nanoribbon with the diameter of 17±2 nm and in several hundred nanometer length (FIG. 4B). These observations, collectively, confirmed that enzymatic reaction modulated the morphology of the assemblies of the cholesterol conjugates, which partially contributed to the different inhibitory activities of 1a, 1b, 2a, and 2b. That is, being exposed to the cancer cell, 1a (or 2a) turns into 1b (or 2b), a process catalyzed by the extra- or intracellular enzymes of the cancer cells; the resulting 1b (or 2b) self-assembled to form nanoscale assemblies that result in death of the cancer cell.

The test system of a further data set is A2780cis cells. Put plainly: MTT assay, cytotoxicity against A2780cis. The format is cell-based, human. The protocol: HeLa, Saos-2, HS-5, HepG2, T98G, and A2780 cells were purchased from American-type Culture Collection (ATCC, USA). A2780cis cell was purchased from Sigma. HeLa cells, HepG-2 cells, and T98G cells were cultured in MEM Medium supplemented with 10% v/v fetal bovine serum, 100 U/mL penicillin, and 100 μg/mL streptomycin. Saos-2 cells were cultured in McCoy's 5a Medium (for Saos-2) supplemented with 15% v/v fetal bovine serum, 100 U/mL penicillin, and 100 μg/mL streptomycin. HS-5 cells were cultured in Dulbecco's Modified Eagle's medium (DMEM) supplemented with 10% v fetal bovine serum (FBS), 100 U/mL penicillin, and 100 μg/mL streptomycin. A2780cis cells were cultured in RPMI 1640 Medium supplemented with 10% v/v fetal bovine serum, 100 U/mL penicillin, and 100 μg/mL streptomycin (cisplatin only necessary every 2-3 passages). All cells were maintained at 37° C. in a humidified atmosphere of 5% CO2.
An MTT assay was used to test the cytotoxicity. All different cell lines were seeded in 96-well plates at 1×10^5 cells/well for 24 hours followed by removal of the culture medium and subsequent addition of culture medium containing different concentrations of the precursors. At designated time (24/48/72 hours), 10 μL MTT solution (5 mg/mL) was added to each well and incubated at 37° C. for another 4 hours, and then 100 μL of SDS-HCl solution was added to stop the reduction reaction and dissolve the purple formazan. The absorbance of each well at 595 nm was measured by a multimode microplate reader. The cytotoxicity assay was performed three times and the average value of the three measurements was taken.
The activity of conjugate 1a against a platinum-resistant, ovarian cancer cell line (A2780cis) (Behrens et al., “Characterization of a Cis-Diamminedichloroplatinum(Ii)-Resistant Human Ovarian Cancer Cell Line and its Use in Evaluation of Platinum Analogues,” Cancer Res. 47:414 (1987); Masuda et al., “Increased DNA Repair as a Mechanism of Acquired Resistance to Cis-Diamminedichloroplatinum (II) in Human Ovarian Cancer Cell Lines,” Cancer Res. 48:5713 (1988), which are hereby incorporated by reference in their entirety) was first examined. To assess the efficacy of conjugate 1a, the assay was carried out in parallel using the known, clinically used cytotoxic agent, cisplatin.
In general terms: Tetrazolium assays rely on reduction of a dye to a coloured formazan, in cell work by metabolically active cells.

For a further data set, the system named is lipid rafts in HeLa cell. Put plainly: Laurdan staining of lipid rafts, HeLa. Type of data set: cell-based, human. As to conditions: 1a 25 μM, 12 hours.
Data set [2] relates to Src, Akt, p-SAPK/JNK in A2780cis cell lines. Put plainly: Expression of Src, Akt and p-SAPK/JNK (CLSM, Western blot). Type of data set: cell-based, human. The protocol:
Further exploration of the mode of action of 1a against A2780cis and HeLa cells was carried out via Western blot for the following ER stress markers: CHOP, Bip, PDI, IRE1α, Calnexin, Erol-Lα, PERK, and β-actin; or p-SAPK/JNK. Western blot was carried out via gel electrophoresis at […] for 1.5 hrs, and then transferring the protein on the gel to PVDF membranes for overnight at […] (4° C.). After that, the membrane was incubated with primary antibodies (obtained from Cell Signaling Technology) overnight at 4° C. The membrane was then incubated with secondary antibodies for 1 h at room temperature. This was followed by the reaction with ECL solutions for 10 minutes, and analysis of the results by autoradiography. Generation of ROS was detected in CLSM images via DHE emissions in exposed cells. CLSM imaging was carried out at the excitation of 543 nm and DHE emission was detected at the wavelength at 575 nm to 625 nm; or detection of anti-phospho-SRC and anti-phospho-Akt.
In addition, 1a causes down regulation of cell survival proteins, Akt (Alexander, “Inhibiting the Akt Pathway in Cancer Treatment,” Pharmacy & Therapeutics 36(4): 225-227 (2011), which is hereby incorporated by reference in its entirety) and Src (Irby et al., “Role of Src Expression and Activation in Human Cancer,” Oncogene 19(49):5636-5642 (2000), which is hereby incorporated by reference in its entirety). […]

As to `CC(C)CCC[C@@H](C)C1CC[C@H]2[C@@H]3CC=C4CC(OC(=O)NC(Cc5ccc(OP(=O)(O)O)cc5)C(=O)O)CC[C@]4(C)[C@H]3CC[C@]12C` (stereo partly drawn) [1a, Cholesterol-(phospho)D-Tyr], in data set [1] (pH 7.4), the “morphology in aqueous solution without ALP” value is reported as “disorder aggregates”. Moreover, the “diameter of nanofibers formed after addition of ALP” value in data set [1] (pH 7.4, ALP 1 U/mL, 24 hours) amounted to 10±2 nm. Also, the “cell viability of A2780cis treated by 1a with exogenous ALP” value with A2780cis cells (1a 12.5 μM + ALP 1 U/mL, 48 hour co-culture) was “partially rescued”. For the same molecule, the “cell viability of A2780cis treated by 1a with ALP inhibitors” value with A2780cis cells (1a 12.5 μM + L-Phe or levamisole 1 mM, 48 hours) is “higher cell viability”. In the data set on A2780cis cells (1a 12.5 μM + zVAD-fmk 50 μM, PJ34 1 μM or Nec-1 45 μM, 48 hours), the “cell viability of A2780cis treated by 1a with cell death signaling inhibitors” value is given as “rescued the cells, but only partially”. Moreover, in the data set on A2780cis cells (72 hours), the “IC50 against A2780cis” value turned out to be 6.3 µg/mL (≈ 9.35 µM). For the same molecule, the IC50 in the data set on A2780cis cells (Homo sapiens, A2780cis, 48 h, read-out: IC50 against A2780cis, 48 hours) is 11 µM and 7.7 µg/mL; with A2780cis cells (read-out: IC50 against A2780cis, 72 hours), 9 µM. Besides, the “cells viable (cell viability test, A2780cis)” value with A2780cis cells (incubated with 1a at 24 hours) is “more than 80%”. Also, in the data set with lipid rafts in HeLa cell, the “number of green fluorescent puncta in cell membrane (laurdan, lipid rafts)” value is listed as “increased considerably”. Besides, in data set [2] (1a 12.5 μM, 24 hours), the “expression of Src and Akt” value is “downregulates”. For the same molecule, the p-SAPK/JNK expression levels result in data set [2] (24 hour treatment, Western blot) was “enhanced”.
